Values quoted from earlier work, collected in PMC12410356 (International Journal for Parasitology: Drugs and Drug …, 2025).
Read-outs that look alike come from different tables or passages of the source.

Experiments:
[1] = test system: E. multilocularis metacestode vesicles; conditions: PGI release after five days; ref Stadelmann et al., 2016; cited from earlier work
[2] = test system: E. multilocularis GL cells; set-up: method as in Stadelmann et al., 2016; conditions: ref Stadelmann et al., 2016; cited from earlier work
[3] = test system: Reuber rat hepatoma (RH) cells; conditions: ref Stadelmann et al., 2016, cited from earlier work

For `O=C(Nc1cccc(C(F)(F)F)c1)c1cc(Cl)ccc1O` [MMV665807], the IC50 [1] is given as 1.2 ± 1.6 µM, the IC50 [2] is given as 0.6 ± 0.37 µM and the IC50 ([3]; confluent, read-out: IC50 confluent RH cells) is given as 20.5 ± 0.13 µM. The IC50 ([3]; pre-confluent, read-out: IC50 pre-confluent RH cells) was 4.8 ± 0.59 µM.
